“Also recorded” adds a separate entry of the source.
Key:
t-PA induced bleeding = test: Rat tail bleeding model with tissue plasminogen activator; type: in vivo
Protocol: Tissue plasminogen activator (t-PA) is used clinically to lyse occlusive thrombi. Bleeding complications that result from the unwanted lysis of hemostatic clots limits its use. TA is a synthetic derivative of the amino acid lysine that acts as a fibrinolytic inhibitor and is used clinically to antagonize unwanted bleeding. The effect oft-PA induced bleeding and its antagonism with TA was assessed in a rat tail bleeding model. Rats were anaesthetized by intraperitoneal injection of pentobarbital at 50 mg/kg. The thrombolytic agent t-PA was intravenously injected at a dose of 1 mg/kg, alone or in combination with TA at a dose of 5 mg/kg or 10 mg/kg. Another group of rats were administered 5 mg/kg TA alone. Control rats were administered saline. Each treatment group contained 7-10 rats.
Following treatment, rat tails were amputated about 4 mm from the tip and the tails were immersed in normal saline at 37° C. The bleeding time was determined as the time for complete cessation of blood flow from the amputated tail by visual inspection.
The relative ability of P188 to antagonize t-PA induced bleeding (compared to TA) was studied by evaluating P188 in the same rat tail bleeding model as described in Example 3. […]
Rat tails were amputated about 4 mm from the tip and the tails were immersed in normal saline at 37° C. and bleeding time was assessed as described in Example 3. […]

[1] = tested on: embolic middle cerebral artery occlusion; test: Embolic MCAO stroke model: modified neurological severity score (mNSS); type: in vivo, rat; details: same schedule
Protocol: (§1) tPA is an effective treatment for acute stroke. Its use is limited by a narrow treatment window (3.5-4.5 hours from onset of stroke) and a greater risk of intracerebral hemnorrhage. […] To show this, the effects of administration of tPA alone, and tPA in combination with P188 were studied in a rat model of embolic middle cerebral artery occlusion. Male Wistar rats (N=10), 3-4 months old and weighing 350-400 g were subjected to embolic middle cerebral artery occlusion (MCAO) as described by Zhang (Zhang R L et al. A rat model of focal embolic cerebral ischemia. Brain Res. 1997, 766:83-92). Following occlusion, neurologic deficit was assessed 30 minutes after MCAO using a 5 point neurological scale (Longa scale; Longa et al., (1989) Stroke 20:84-91).
(§2) To compare the two treatments, P188 in combination with tPA and tPA alone were administered according to the schedule provided in Table 2. The dose of P188 was administered in a volume of 1.0 ml infused over a period of 1 hr by intravenous (IV) infusion via a tail vein. […] At 1 and 7 days after stroke onset (MCAO), clinical neurological function was assessed using the adhesive removal test and modified neurological severity score (mNSS) (Li Y, Chen J, Wang L, Lu M, Chopp M. Treatment of stroke with intracarotid administration of marrow stromal cells. Neurology 2001, 56: 1666-1672). […]

[2] = tested on: embolic middle cerebral artery occlusion; test: Embolic MCAO stroke model: lesion volume; type: in vivo, rat; details: day 7 after MCAO, H&E coronal sections
Protocol: as §1, §2

[3] = tested on: embolic middle cerebral artery occlusion; test: Embolic MCAO stroke model: adhesive removal test; type: in vivo, rat
Protocol: as §1, §2

[4] = tested on: embolic middle cerebral artery occlusion; test: Embolic MCAO stroke model: gross hemorrhage; type: in vivo, rat; details: day 7 after MCAO, n=10 per group
Protocol: as §1
as §2, with “2.” for “2. The dose of P188 was administered in a volume of 1.0 ml infused over a period of 1 hr by intravenous (IV) infusion via a tail vein.”
The harvested brains also were assessed for the incidence of gross hemorrhage, defined as blood evident to the unaided eye on the H&E stained coronal sections. […]

Row | Compound | t-PA induced bleeding (t-PA induced bleeding; t-PA 1 mg/kg IV in combination with TA 5 or 10 mg/kg (FIG. 14)) | average mNSS score ([1]; 1 day after MCAO) | average mNSS score ([1]; 7 days after MCAO) | bleeding time of amputated tail (t-PA induced bleeding; t-PA alone 1 mg/kg IV, versus saline) | average lesion volume [2] | average time to tape removal ([3]; day 1 after MCAO, tPA 10 mg/kg IV at 4 hr, P188 300 mg/kg IV at 3.5 hr and 2,000 mg/kg ip at 9.5 hr) | average time to tape removal ([3]; day 7 after MCAO, same schedule) | animals exhibiting gross hemorrhage [4]
1 | NC[C@H]1CC[C@H](C(=O)O)CC1 [TA, tranexamic acid, reference compound] | dose dependent reduction |  |  |  |  |  |  | 
2 | tissue plasminogen activator [t-PA] |  | approximately 10.5 | approximately 8.5 | marked prolongation of bleeding time; also recorded: increased bleeding time | approximately 35 % of contralateral hemisphere | approximately 120 seconds | approximately 100 seconds | 30%

Source: patent publication US20160000823A1, “METHODS AND COMPOSITIONS FOR IMPROVING HEMOSTASIS” (Mast Therapeutics, Inc., priority 2014, published 2016)
